This note sets out measurements from patent US20100247931A1, “TREATING SURFACES TO ENHANCE BIO-COMPATIBILITY” (priority 2001, published 2010).

“And” between values parts separate entries of the source, which are not always exact repeats. Equal entries are not always repeated. Structures can show the parent of a compound that is named as a salt.

Common to all, as to type: physicochemical
Data set [1] is described as follows: Colchicine release from polymer coating into phosphate buffered saline (UV/Vis absorbance at 350 nm). From the text:
The stent was placed in a tube containing 4 mls of Phosphate Buffered Saline solution (prepared from tablets supplied by Sigma-Aldrich Chemical Co by dissolving 1 tablet in 200 mls of deionised water) and agitated by rolling. The saline solution was sampled at intervals and its colchicine content determined by monitoring its absorbance at 350 nm using UV/Vis Spectrometry. A calibration plot for various concentrations of Colchicine (4 to 99 micrograms) in solution against the solution's absorbance at 350 nm was constructed to convert sample's release absorbance into drug release values in micrograms per stent. The graph of Colchicine released against release time is plotted in FIG. 3.
1. Stainless steel strips approx 6-8 mm in width were cleaned in IPA with ultrasound for 15 mins, followed by drying at 130° C. for 30 mins 2. The plate was functionalised as in Example 2. 3. The amino group on the functionalised steel was then reacted with the ispcyano group of 3-(triethoxysilyl)isocyanate to form a urea linkage, yielding triethoxysilyl groups on the surface. This was performed by adding the stainless steel plate to a solution of 3-(triethoxysilyl) isocyanate (9 ml) in anhydrous toluene (219 ml). […] The colchicine was released by placing the strips in 4 mls of phosphate buffered saline (PBS) solution, placing on a spiromix and measuring the absorbance at 350 nm over a period of 100 hours 15. […]

Data set [2] can be described thus: Eosin Y coupling to amine groups of TMSPEA functionalised surface and release (absorbance at 517 nm). As to the method:
Once rinsing had been completed, the sample was placed in a 50 ml sample tube and 4 mls of 0.1 M NaOH was pipetted into it, the sample tube was placed on the Spiramix and it was rolled for—5 minutes. 20 mls of deionised water was then pipetted into the solution and the absorbance of the resulting solution was recorded at 517 nm using a spectrophotometer. The absorbance value was then converted into an amount of eosin Y attached to the sample by using a calibration graph of absorbance readings for known amounts of eosin Y sodium salt. The absorbance reading for the release solution was 0.83 at 517 nm corresponding to 205 μg of eosinY.
All six samples were placed in sample tubes (100*16 mm R. B. tubes clarified polypropylene, Jencons PLC) and rolled on the Spiramix (Denley Spiramix 5) in approximately 4-6 mls of a 0.4% aqueous solution of eosin Y sodium salt (Sigma Aldrich chemical co) for approximately 1 hour.
Once rinsing had been completed, two samples from the ethanol rinsed and unrinse, d sets were placed in 50 ml sample tubes and 4 mls of 0.1 M NaOH was pipetted into each. The sample tubes were placed on the Spiramix and rolled for—5 minutes. 20 mls of deionised water was then pipetted into each sample and the absorbance of the resulting solution was recorded at 517 nm using a Jenway 6305 W/V is spectrophotometer. The values recorded were then converted into amounts of eosin Y attached to the samples by using a calibration graph of absorbance readings for known amounts of eosin Y sodium salt.
After drying for 2 hours at 50° C. the sample was stained with Eosin Y solution, visually examined and then released as detailed in the Eosin Y Coupling section of Example 6.

A short description of data set [3]: Mitoxantrone coupling and release from coated device (absorbance of release solution at 660 nm). The procedure: A 0.01% solution of mitoxantrone (Sigma Aldrich Chemical Co) was made up in deionised water. The samples are each immersed in 4 mls of the solution and left rolling on a Spiramix (Denley Spiramix 5) for—17 hours (Samples placed in 100*16 mm R. B. tube clarified polypropylene supplied by Jencons PLC.). After this time they were rinsed in deionised water until there was no evidence of the mitoxantrone being removed in the water. 4 mls of phosphate buffered saline solution (PBS) was then pipetted into a clean sample tube and the sample added. The samples were left in this solution for 1 hour on the Spiramix, after which absorbances were recorded by spectrophotometer at 660 nm. The solutions were then transferred back into the appropriate sample tube and 5 drops of 1M hydrochloric acid added from a dropping pipette. The samples were left for 10 minutes rolling on the Spiramix, after which an absorbance reading was recorded. Further readings were obtained after 1 hour or more to give a value for complete release of mitoxantrone. The absorbances recorded for the release solutions at 660 nm gave an indication of the amount of mitoxantrone attached to the carboxymethylcellulose coating on each sample. By use of a calibration curve plotting known concentrations of mitoxantrone solutions against the absorbance of the solution at 660 nm, the mitoxantrone concentration of the release solution was determined and from this the amount of mitoxantrone attached to each device. An absorbance of 0.09 at 660 nm was obtained for the 1 hour release in phosphate buffered saline solution, and an absorbance of 0.17 for the complete release of Mitoxantrone. This equates to approximately 31 micrograms of mitoxantrone attached to the stent.

Assay in data set [4]: as above
The source holds these as a separate data set.

[5] abbreviates: Example 2: stent coupled with poly(acrylic acid) partial sodium salt, Mw 2000.
Where [6] appears, read: Example 9: heat exchange tubes coupled with polyacrylic acid sodium salt, Mw ca. 30,000.

Turning to `COc1cc2c(c(OC)c1OC)-c1ccc(OC)c(=O)cc1[C@@H](NC(C)=O)CC2` [colchicine], in data set [1] (Coating of poly(vinyl butyral-co-vinyl alcohol-co-vinyl acetate) and colchicine without poly(ethylene glycol)), the “Release of drug into phosphate buffered saline solution” value was “does not release the drug into phosphate buffered saline solution”. The “Total amount of drug released after sonication in 2-propanol” value in data set [1] (Example 14: strip coated with poly(vinyl butyral-co-vinyl alcohol-co-vinyl acetate) + poly(ethylene glycol) + colchicine, after 100 hours in PBS) stood at 320 u. g.

In the case of `O=C1OC2(c3ccccc31)c1cc(Br)c(O)c(Br)c1Oc1c2cc(Br)c(O)c1Br` [eosin Y, eosin Y sodium salt], the “Eosin Y attached to the sample” value in data set [2] (Example 6: TMSPEA functionalised tube (toluene, 30 minutes), calibration graph) is 205 µg. The “Absorbance of release solution at 517 nm” value was 0.83 in data set [2] (Example 6: TMSPEA functionalised tube (toluene, 30 minutes), released in 0.1 M NaOH) and 0.19 in data set [2] (Example 15: tube functionalised with TMSPEA in tetrahydrofuran instead of toluene).

`O=C1c2c(O)ccc(O)c2C(=O)c2c(NCCNCCO)ccc(NCCNCCO)c21` [mitoxantrone]: in data set [3] (Example 1: CMC coupled stent, PBS + 1M HCl), the “Absorbance at 660 nm, complete release of mitoxantrone” value was 0.17. In addition, the “Mitoxantrone attached to the stent” value in data set [3] (Example 1: CMC coupled stent, from calibration curve) is “approximately 31 micrograms”. In addition, in data set [3] (Example 1: stainless steel stent, TMSPEA functionalised, carboxymethylcellulose coupled), the “Absorbance at 660 nm, 1 hour release in phosphate buffered saline solution” value came to 0.09. Moreover, in data set [4] (setting [5]), the “Absorbance at 660 nm, released 10 minutes in PBS with 5 drops 1 M HCl” value was 0.037 and the “Mitoxantrone attached to the stent” value stood at 7 micrograms. Further, the “Mitoxantrone attached to the heparin coated devices (complete release values)” value in data set [4] (Example 3: heparin coupled stainless steel heat exchange tubes) was 31 micrograms and 36 micrograms. In addition, in data set [4] (Example 7: commercially available stent, heparin/EDC Reaction Solution 1 of Example 6), the “Mitoxantrone attachment of released stent” value was determined as 9 micrograms. Besides, in data set [4] (setting [6]), the “Absorbance at 660 nm, complete release of mitoxantrone” value came out at 0.33 and the “Mitoxantrone corresponding to complete release absorbance” value worked out at 60 micrograms.
